{"source": "patent US20090023687A1", "about": "“Method for Controlling Phytopathogenic Organisms” (SYNGENTA CROP PROTECTION, INC., priority 2005, published 2009)", "type_in_all_cases": "in vivo", "key": {"Phakopsora pachyrhizi [1]": {"test_system": "Phakopsora pachyrhizi", "assay": "Leaf disc test with Phakopsora pachyrhizi on glyphosate sensitive soybean, leaf disks treated (Example 4)", "excerpt": "(§1) A synergistic effect exists whenever the action of an active ingredient combination is greater than the action expected from the effect of the individual components.\n(§2) The action to be expected (E) for a given active ingredient combination obeys the so-called COLBY formula and can be calculated as follows (COLBY, S. R. “Calculating synergistic and antagonistic responses of herbicide combination”. Weeds, Vol. 15, pages 20-22; 1967):\n(§3) ppm=milligrams of active ingredient (=a.i.) per litre of spray mixture X=% action by active ingredient I using p ppm of active ingredient Y=% action by active ingredient II using q ppm of active ingredient.\n(§4) According to Colby, the expected (additive) action of active ingredients I+II using p+q ppm of active ingredient is\n(§5) If the action actually observed (O) is greater than the expected action (E), then the action of the combination is superadditive, i.e. there is a synergistic effect.\n(§6) A series of leaf disc tests were conducted to show the effects of tank mixtures of glyphosate and pesticides or plant activators on Asian soybean rust. The soybean variety tested was brand Williams82 glyphosate sensitive soybean. The leaf source for the testing was the first trifoliate leaf. Six (6) repetitions for each formulation and at each rate were conducted. Treatment of the leaf disks with the recited active ingredients was conducted 4 weeks after planting. The leaves were inoculated with Phakopsora pachyrhizi (Asian soybean rust (ASR)) one (1) day after treatment. Evaluation of the leaf was conducted ten (10) days after inoculation and the mean percent infestation of the six repetitions is reported in Tables 8-11.\nAs glyphosate source Touchdown® HiTech or Zapp® QI was used. The fungicides were used as commercial formulations: Bion® WG50 plant activator comprising acibenzolar-S-methyl (Syngenta Corp.), Opus® SC125 fungicide comprising epoxiconazole commercially (BASF AG), Tilt® EC250 fungicide comprising propiconazole (Syngenta Corp.), Quadris® SC250 fungicide comprising azoxystrobin (Syngenta Corp.). The rates of the active ingredients used in the tests are set in Tables 8-11 as mg active ingredient (a.i.)/L."}, "Phakopsora pachyrhizi [2]": {"test_system": "Phakopsora pachyrhizi", "assay": "Leaf disc test with Phakopsora pachyrhizi on glyphosate resistant soybean (Example 1)", "excerpt": "as §1, §2, §3, §4, §5\nA series of leaf disc tests were conducted to show the effects of tank mixtures of glyphosate and fungicides on Asian soybean rust. The soybean variety tested was NK Brand S40-R9 glyphosate resistant soybean. The leaf source for the testing was the first trifoliate leaf. Six (6) repetitions for each formulation and at each rate were conducted. Treatment of the leaf with the recited active ingredients was conducted 29 days after planting. The leaves were inoculated with Phakopsora pachyrhizi (Asian soybean rust (ASR)) one (1) day after treatment. Evaluation of the leaf was conducted ten (10) days after inoculation and the mean percent infestation of the six trials is reported in Table 1.\nThe glyphosate source was Zapp® QI herbicide (Syngenta Corp.), containing the potassium salt of glyphosate as well as an adjuvant system. The fungicide used was Priori® Xtra (Syngenta Corp.), which is a suspension concentrate containing 200 g/L of azoxystrobin (AZ) and 80 g/L of cyproconazole (CCZ). The rates of the active ingredients used in the tests are set forth in the Table as mg active ingredient (a.i.)/L."}, "Phakopsora pachyrhizi [3]": {"test_system": "Phakopsora pachyrhizi", "assay": "whole plant or invertebrate", "conditions": "in Glycine max, foliar, read-out: % activity observed", "excerpt": "as §1, §2, §3, §4, §5\nas §6, with “the ortho-substituted phenyl-amide (OPA) fungicides represented by structures F-5 and F-9” for “pesticides or plant activators”, “leaf” for “leaf disks”, “3 and 4.” for “8-11.”\nThe glyphosate source was Touchdown® HiTech herbicide (Syngenta Corp.), containing the potassium salt of glyphosate and no adjuvant system. The compound OPA F-5 used was a compound of formula F-5, wherein the ratio of racemic compounds of formula F-3 (syn) to racemic compounds of formula F-4 (anti) was 9:1. The compound OPA F-9 used was a compound of formula F-9, wherein the ratio of racemic compounds of formula F-7 (trans) to racemic compounds of formula F-8 (cis) was around 100:1. The fungicides used were EC100 formulations of OPA F-5 and OPA F-9 which are emulsion concentrates containing 100 ga.i./L. The rates of the active ingredients used in the tests are set in the table as mg active ingredient (a.i.)/L."}, "[4]": {"conditions": "Glyphosate TD HiTech SL523 2.5 mg a.i./L, Table 9 (check 77)"}, "[5]": {"conditions": "Glyphosate TD HiTech SL523 2.5 mg a.i./L, Table 11 (check 80)"}, "[6]": {"conditions": "Glyphosate TD HiTech SL523 7.4 mg a.i./L, Table 11 (check 80)"}, "[7]": {"conditions": "Glyphosate TD HiTech SL523 7.4 mg a.i./L, Tables 9-10 (check 77)"}, "[8]": {"conditions": "Glyphosate TD HiTech SL523 22.2 mg a.i./L"}, "[9]": {"conditions": "Glyphosate Zapp QI SL500 22.2 mg a.i./L"}, "[10]": {"conditions": "Glyphosate Zapp QI SL500 66.7 mg a.i./L"}}}
{"molecule": "O=C(O)CNCP(=O)(O)O", "note": "[Glyphosate, glyphosate]", "values": [{"measurement": "Activity observed %", "setting": "Phakopsora pachyrhizi [1]; [4]", "result": 0, "unit": "%"}, {"measurement": "Leaf attack %", "setting": "Phakopsora pachyrhizi [1]; [4]", "result": 80, "unit": "%"}, {"measurement": "Activity observed %", "setting": "Phakopsora pachyrhizi [1]; [5]", "result": 8, "unit": "%"}, {"measurement": "Leaf attack %", "setting": "Phakopsora pachyrhizi [1]; [5]", "result": 74, "unit": "%"}, {"measurement": "Activity observed %", "setting": "Phakopsora pachyrhizi [1]; [6]", "result": 0, "unit": "%"}, {"measurement": "Leaf attack %", "setting": "Phakopsora pachyrhizi [1]; [6]", "result": 80, "unit": "%"}, {"measurement": "Activity observed %", "setting": "Phakopsora pachyrhizi [1]; [7]", "result": 0, "unit": "%"}, {"measurement": "Leaf attack %", "setting": "Phakopsora pachyrhizi [1]; [7]", "result": 80, "unit": "%"}, {"measurement": "Activity observed %", "setting": "Phakopsora pachyrhizi [1]; [8]", "result": 0, "unit": "%"}, {"measurement": "Leaf attack %", "setting": "Phakopsora pachyrhizi [1]; [8]", "result": 80, "unit": "%"}, {"measurement": "Activity observed %", "setting": "Phakopsora pachyrhizi [1]; [9]", "result": 1, "unit": "%"}, {"measurement": "Leaf attack %", "setting": "Phakopsora pachyrhizi [1]; [9]", "result": 68, "unit": "%"}, {"measurement": "Activity observed %", "setting": "Phakopsora pachyrhizi [1]; [10]", "result": 1, "unit": "%"}, {"measurement": "Leaf attack %", "setting": "Phakopsora pachyrhizi [1]; [10]", "result": 68, "unit": "%"}, {"measurement": "% Leaf attack", "setting": "Phakopsora pachyrhizi [2]; Glyphosate 0.1 mg a.i./L (Zapp QI)", "result": 90, "unit": "%"}, {"measurement": "% Leaf attack", "setting": "Phakopsora pachyrhizi [2]; Glyphosate 0.39 mg a.i./L (Zapp QI)", "result": 90, "unit": "%"}, {"measurement": "% Leaf attack", "setting": "Phakopsora pachyrhizi [2]; Glyphosate 1.56 mg a.i./L (Zapp QI)", "result": 100, "unit": "%"}, {"measurement": "% Leaf attack", "setting": "Phakopsora pachyrhizi [2]; Glyphosate 6.25 mg a.i./L (Zapp QI)", "result": 100, "unit": "%"}, {"measurement": "% Leaf attack", "setting": "Phakopsora pachyrhizi [2]; Glyphosate 25 mg a.i./L (Zapp QI)", "result": 100, "unit": "%"}, {"measurement": "% Leaf attack", "setting": "Phakopsora pachyrhizi [2]; Glyphosate 100 mg a.i./L (Zapp QI)", "result": 100, "unit": "%"}, {"measurement": "inhibition at 0.1 µg/mL", "setting": "Phakopsora pachyrhizi [2]; Phakopsora pachyrhizi, foliar, Glyphosate 0.1 mg a.i./L (Zapp QI), read-out: % Activity observed", "result": 6, "unit": "%"}, {"measurement": "inhibition at 0.39 µg/mL", "setting": "Phakopsora pachyrhizi [2]; Phakopsora pachyrhizi, foliar, Glyphosate 0.39 mg a.i./L (Zapp QI), read-out: % Activity observed", "result": 6, "unit": "%"}, {"measurement": "inhibition at 1.56 µg/mL", "setting": "Phakopsora pachyrhizi [2]; Phakopsora pachyrhizi, foliar, Glyphosate 1.56 mg a.i./L (Zapp QI), read-out: % Activity observed", "result": 0, "unit": "%"}, {"measurement": "inhibition at 6.25 µg/mL", "setting": "Phakopsora pachyrhizi [2]; Phakopsora pachyrhizi, foliar, Glyphosate 6.25 mg a.i./L (Zapp QI), read-out: % Activity observed", "result": 0, "unit": "%"}, {"measurement": "inhibition at 25 µg/mL", "setting": "Phakopsora pachyrhizi [2]; Phakopsora pachyrhizi, foliar, Glyphosate 25 mg a.i./L (Zapp QI), read-out: % Activity observed", "result": 0, "unit": "%"}, {"measurement": "inhibition at 100 µg/mL", "setting": "Phakopsora pachyrhizi [2]; Phakopsora pachyrhizi, foliar, Glyphosate 100 mg a.i./L (Zapp QI), read-out: % Activity observed", "result": 0, "unit": "%"}, {"measurement": "inhibition at 2.5 µg/mL", "setting": "Phakopsora pachyrhizi [3]; Glyphosate 2.5 mg a.i./L (Touchdown HiTech)", "result": 0, "unit": "%"}, {"measurement": "inhibition at 7.4 µg/mL", "setting": "Phakopsora pachyrhizi [3]; Glyphosate 7.4 mg a.i./L (Touchdown HiTech)", "result": 0, "unit": "%"}, {"measurement": "inhibition at 22.2 µg/mL", "setting": "Phakopsora pachyrhizi [3]; Glyphosate 22.2 mg a.i./L (Touchdown HiTech)", "result": 14, "unit": "%"}, {"measurement": "inhibition at 66.7 µg/mL", "setting": "Phakopsora pachyrhizi [3]; Glyphosate 66.7 mg a.i./L (Touchdown HiTech)", "result": 0, "unit": "%"}, {"measurement": "inhibition at 200 µg/mL", "setting": "Phakopsora pachyrhizi [3]; Glyphosate 200.0 mg a.i./L (Touchdown HiTech)", "result": 0, "unit": "%"}, {"measurement": "inhibition at 600 µg/mL", "setting": "Phakopsora pachyrhizi [3]; Glyphosate 600 mg a.i./L (Touchdown HiTech)", "result": 34, "unit": "%"}]}
